Results from ChEMBL document CHEMBL1201862, “PubChem BioAssay data set” (2004).
The source made the active and inactive calls.

Tests used:
[1] = target: T1, Ubiquitin-conjugating enzyme E2 N (Homo sapiens, UniProt P61088); format: functional;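 further: Dose-response confirmation in a TR-FRET assay detecting UBC13-driven polyubiquitin chain formation, inhibition measured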
T1 sequence (P61088 whole entry): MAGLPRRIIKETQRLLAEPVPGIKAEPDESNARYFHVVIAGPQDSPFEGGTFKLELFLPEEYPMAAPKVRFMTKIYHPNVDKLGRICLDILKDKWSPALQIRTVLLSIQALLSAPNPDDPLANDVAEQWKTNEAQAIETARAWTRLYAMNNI

[2] = cytotoxicity toward NIH3T3 fibroblasts, dose response, counter-screen, cell-based, ATP luminescence, mouse fibroblasts (AID 2010); format: functional;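 further: cells exposed to compound for about 90 hours before reading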
[3] = inhibitors of intracellular T. cruzi replication, confirmation, NIH3T3 host cells, beta-gal luminescence (AID 2044); format: functional, cell-based;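 further: intracellular parasites grown in NIH/3T3 mouse fibroblasts as host cells; luminescent beta-galactosidase reporter signal from transgenic T. cruzi replicating inside host cells; inhibitors lower the luminescence signal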
Vero = assay: cells; format: functional; conditions: Chlorocebus sabaeus
Cytochrome P450 2C9 = Cytochrome P450 2C9 (Homo sapiens, UniProt P11712)
Cytochrome P450 3A4 = Cytochrome P450 3A4 (Homo sapiens, UniProt P08684);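 further: CYP3A4 tested as one member of a cytochrome P450 panel screen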
Protein skinhead-1 = target: T2, Protein skinhead-1 (Caenorhabditis elegans, UniProt P34707); format: functional
T2 sequence (P34707 whole entry): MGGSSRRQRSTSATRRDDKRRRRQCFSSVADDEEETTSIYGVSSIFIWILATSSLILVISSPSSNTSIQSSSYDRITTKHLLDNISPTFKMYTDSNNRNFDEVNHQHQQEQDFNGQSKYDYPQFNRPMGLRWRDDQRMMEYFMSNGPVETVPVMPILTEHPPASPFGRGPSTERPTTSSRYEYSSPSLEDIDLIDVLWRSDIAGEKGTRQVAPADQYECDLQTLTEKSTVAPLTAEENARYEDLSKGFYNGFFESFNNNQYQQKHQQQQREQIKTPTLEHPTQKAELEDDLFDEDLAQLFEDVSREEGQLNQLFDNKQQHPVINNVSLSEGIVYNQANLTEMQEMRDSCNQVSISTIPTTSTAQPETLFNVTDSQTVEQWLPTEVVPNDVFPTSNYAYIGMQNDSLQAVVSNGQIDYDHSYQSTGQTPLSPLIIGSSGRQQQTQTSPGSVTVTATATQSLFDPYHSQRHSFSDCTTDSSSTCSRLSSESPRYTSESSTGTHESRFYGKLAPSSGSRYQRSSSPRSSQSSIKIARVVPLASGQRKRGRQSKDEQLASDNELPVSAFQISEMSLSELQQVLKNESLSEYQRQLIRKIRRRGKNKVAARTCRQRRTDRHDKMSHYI

Streptokinase A = target: T3, Streptokinase A (Streptococcus pyogenes serotype M1, UniProt P10520); assay: S. pyogenes streptokinase expression inhibitors, potency, dose response, plasminogen activation absorbance, OD405 (AID 1914); format: functional, Streptococcus pyogenes M1 GAS;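 further: secreted streptokinase activity via plasminogen activation per viability signal from cell pellet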
T3 sequence (P10520 whole entry): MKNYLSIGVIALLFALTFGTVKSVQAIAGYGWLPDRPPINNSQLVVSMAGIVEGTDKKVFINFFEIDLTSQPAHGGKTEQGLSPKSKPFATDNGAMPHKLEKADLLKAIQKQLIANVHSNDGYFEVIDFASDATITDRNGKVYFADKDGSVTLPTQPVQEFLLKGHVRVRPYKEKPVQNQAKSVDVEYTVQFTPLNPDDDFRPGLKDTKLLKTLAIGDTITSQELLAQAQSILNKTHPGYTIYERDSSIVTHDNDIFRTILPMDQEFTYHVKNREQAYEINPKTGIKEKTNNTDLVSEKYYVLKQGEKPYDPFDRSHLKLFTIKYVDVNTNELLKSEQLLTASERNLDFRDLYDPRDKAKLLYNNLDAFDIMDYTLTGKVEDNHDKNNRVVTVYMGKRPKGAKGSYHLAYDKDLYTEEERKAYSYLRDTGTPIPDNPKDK

Streptococcus = assay: Group A Streptococcus viability loss, dose response, counter-screen for streptokinase expression inhibitor project, luminescence, BacTiterGlo (AID 1915); format: functional, organism-based;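 further: potency for reduction of bacterial viability or growth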
[4] = growth suppression of PTEN-null colon cells, dose response, cell-based, HCT116 PTEN knockout (AID 1047); format: functional;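 further: HCT116 colon tumor cells with PTEN knocked out; cells exposed to compound for 60 hours before readout; potency for loss of cell viability measured by luminescence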
[5] = Shn3 3'UTR reporter inhibitors, dose response, cell-based, Clone20 osteoblasts, firefly luciferase, cherry-picked (AID 624132); format: functional;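 further: firefly luciferase luminescence from reporter carrying the Shn3 3'UTR in osteoblasts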
[6] = growth suppression of beta-catenin-knockout colon cells, dose response, cell-based, HCT116, human colon tumor (AID 1045); format: functional;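 further: HCT116 colon tumor cells with beta catenin knocked out; cells exposed to compound for 60 hours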
[7] = target: T4, Replicative DNA helicase DnaB (Mycobacterium tuberculosis, UniProt P9WMR3); assay: DnaB intein splicing inhibitors, dose response, biochemical, cell-free fluorescence (AID 449749); format: functional
T4 sequence (P9WMR3 whole entry): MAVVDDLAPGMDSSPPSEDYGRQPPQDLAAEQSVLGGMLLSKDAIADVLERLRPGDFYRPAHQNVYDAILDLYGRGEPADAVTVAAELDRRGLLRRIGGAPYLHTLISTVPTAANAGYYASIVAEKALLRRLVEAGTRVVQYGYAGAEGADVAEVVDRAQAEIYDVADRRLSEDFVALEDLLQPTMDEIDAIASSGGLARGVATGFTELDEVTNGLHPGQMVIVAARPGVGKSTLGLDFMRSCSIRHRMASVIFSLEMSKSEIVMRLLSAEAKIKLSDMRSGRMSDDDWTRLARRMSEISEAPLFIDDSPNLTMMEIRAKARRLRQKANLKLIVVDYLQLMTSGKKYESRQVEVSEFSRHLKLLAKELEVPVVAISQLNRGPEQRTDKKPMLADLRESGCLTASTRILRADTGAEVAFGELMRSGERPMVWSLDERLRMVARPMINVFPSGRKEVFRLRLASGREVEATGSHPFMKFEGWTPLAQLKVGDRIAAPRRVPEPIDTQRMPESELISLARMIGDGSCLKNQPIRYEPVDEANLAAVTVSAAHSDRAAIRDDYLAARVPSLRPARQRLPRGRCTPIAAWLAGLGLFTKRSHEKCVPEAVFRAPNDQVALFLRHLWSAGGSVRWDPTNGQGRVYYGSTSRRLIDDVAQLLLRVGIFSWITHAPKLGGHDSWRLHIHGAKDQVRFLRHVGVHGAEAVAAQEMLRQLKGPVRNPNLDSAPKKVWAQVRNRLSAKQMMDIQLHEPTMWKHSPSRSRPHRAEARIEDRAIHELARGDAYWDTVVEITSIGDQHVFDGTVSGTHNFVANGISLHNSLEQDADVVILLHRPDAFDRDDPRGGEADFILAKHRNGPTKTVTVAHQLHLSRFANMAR

Protein RecA = target: T5, Protein RecA (Mycobacterium tuberculosis, UniProt P9WHJ3); assay: Fluorescence Cell-Free Homogeneous Dose Retest to Identify Inhibitors of RecA-Intein Splicing Activity. [Related pubchem assays (depositor defined):AID2097, AID2223, AID489010, AID492950]; format: functional
T5 sequence (P9WHJ3 whole entry): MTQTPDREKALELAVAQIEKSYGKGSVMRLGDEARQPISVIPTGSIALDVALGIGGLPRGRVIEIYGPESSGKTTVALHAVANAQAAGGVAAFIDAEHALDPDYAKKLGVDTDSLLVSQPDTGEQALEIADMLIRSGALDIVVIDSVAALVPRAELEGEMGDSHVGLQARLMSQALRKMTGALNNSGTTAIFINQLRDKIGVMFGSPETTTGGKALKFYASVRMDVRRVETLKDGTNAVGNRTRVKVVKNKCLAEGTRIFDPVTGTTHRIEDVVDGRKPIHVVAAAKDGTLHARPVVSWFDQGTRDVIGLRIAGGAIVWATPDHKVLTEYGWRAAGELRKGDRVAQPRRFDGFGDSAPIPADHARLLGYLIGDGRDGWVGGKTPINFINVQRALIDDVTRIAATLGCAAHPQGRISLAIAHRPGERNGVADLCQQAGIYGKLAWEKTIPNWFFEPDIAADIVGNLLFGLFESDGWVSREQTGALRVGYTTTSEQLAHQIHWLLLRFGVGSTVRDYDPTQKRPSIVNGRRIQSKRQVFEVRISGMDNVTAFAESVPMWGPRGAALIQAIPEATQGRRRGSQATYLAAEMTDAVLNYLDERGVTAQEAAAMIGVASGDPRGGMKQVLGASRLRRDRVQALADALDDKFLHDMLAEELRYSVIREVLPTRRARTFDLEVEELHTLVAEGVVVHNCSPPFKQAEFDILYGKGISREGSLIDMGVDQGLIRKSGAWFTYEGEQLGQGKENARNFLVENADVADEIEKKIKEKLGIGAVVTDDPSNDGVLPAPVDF

[8] = control 3'UTR Renilla luciferase suppression, dose response, counter-screen for Shn3 inhibitor project, cell-based, Clone20-Shn3RL, cherry-picked (AID 624133); format: functional
[9] = HepG2 cell cytotoxicity, dose response, cytotoxicity control for Shn3 inhibitor project, CellTiter-Glo, cherry-picked (AID 624134); format: functional, cell-based
INS1 = assay: beta cell apoptosis inhibitors, cytokine rescue, dose response, luminescence, retest (AID 449756); format: functional, cell-based; conditions: Rattus norvegicus;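 further: cell death triggered by IL-1 beta plus TNF-alpha plus IFN-gamma mixture; protective hits raise ATP signal compared with cytokine alone wells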
[10] = inhibitors of SNCA 5'UTR-driven reporter translation, confirmation, H4 neuroglioma cells, luminescence (AID 1988); format: functional, cell-based
[11] = Luminescence Cell-Based Dose Response HTS to Identify Inhibitors of 5'UTR Stem-Loop Driven Prion Protein mRNA Translation in H4 Neuroglioblastoma Cells. [Related pubchem assays: 1827 (Project Summary), 1813 (Primary HTS)]; format: functional
[12] = inhibitors of firefly luciferase expression or activity, dose response, H4 neuroglioma cells, luminescence (AID 1990); format: functional, cell-based
[13] = MC4R antagonists, dose response, counter-screen for LGR2 antagonist project, cell-based, plate reader, cherry pick (AID 743444); format: functional;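 further: transfected HEK 293 cells stimulated with alpha-MSH peptide; potency of inhibitors of the alpha-MSH evoked signal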
[14] = LGR2 antagonists, dose response, cell-based, HEK293, CRE-luciferase reporter, cherry pick, set 2 (AID 743343); format: functional;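 further: transfected cells were stimulated with diluted bursicon conditioned medium after compound addition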
[15] = NIH-3T3 fibroblast cytotoxicity, dose response, cytotoxicity control, cell-based, fluorescence, Alamar Blue, secondary assay (AID 2327); format: functional;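 further: NIH-3T3 mouse fibroblasts cultured with fluconazole at 8 µg/mL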
[16] = C. albicans growth with fluconazole, confirmation, fluorescence, retest (AID 2467); format: functional, cell-based

Chain of Cytochrome P450 2C9 (P11712 whole entry): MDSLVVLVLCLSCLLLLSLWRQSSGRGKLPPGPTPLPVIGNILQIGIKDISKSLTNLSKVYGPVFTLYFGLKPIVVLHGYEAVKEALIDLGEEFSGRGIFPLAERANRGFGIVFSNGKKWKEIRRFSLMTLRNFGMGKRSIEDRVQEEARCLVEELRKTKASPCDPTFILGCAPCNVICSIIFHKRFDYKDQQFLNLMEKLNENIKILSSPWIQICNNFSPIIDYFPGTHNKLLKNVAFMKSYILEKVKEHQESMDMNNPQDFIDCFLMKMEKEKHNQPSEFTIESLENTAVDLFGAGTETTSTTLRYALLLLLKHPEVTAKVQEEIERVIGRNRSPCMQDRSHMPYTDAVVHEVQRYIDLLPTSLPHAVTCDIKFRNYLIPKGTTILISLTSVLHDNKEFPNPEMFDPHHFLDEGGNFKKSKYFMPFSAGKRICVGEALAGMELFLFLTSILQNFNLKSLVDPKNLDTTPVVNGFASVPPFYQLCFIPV
Chain of Cytochrome P450 3A4 (P08684 whole entry): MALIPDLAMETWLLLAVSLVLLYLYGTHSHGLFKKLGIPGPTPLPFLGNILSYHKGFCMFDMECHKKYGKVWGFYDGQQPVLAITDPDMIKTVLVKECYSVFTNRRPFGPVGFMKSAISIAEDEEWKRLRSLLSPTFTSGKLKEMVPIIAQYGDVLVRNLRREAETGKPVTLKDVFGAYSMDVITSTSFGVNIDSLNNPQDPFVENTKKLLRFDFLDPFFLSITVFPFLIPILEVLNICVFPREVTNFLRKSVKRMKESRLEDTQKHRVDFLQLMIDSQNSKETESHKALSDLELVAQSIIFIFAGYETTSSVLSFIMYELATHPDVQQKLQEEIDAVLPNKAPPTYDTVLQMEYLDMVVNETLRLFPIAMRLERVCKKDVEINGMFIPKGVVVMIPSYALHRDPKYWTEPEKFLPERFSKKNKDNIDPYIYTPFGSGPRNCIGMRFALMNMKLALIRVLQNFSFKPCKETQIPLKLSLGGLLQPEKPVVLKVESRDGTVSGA

Structure (SMILES): CC1CCN(c2c(NCc3ccc(C(=O)N4CCN(C5CCCCC5)CC4)cc3)c(=O)c2=O)CC1
- IC50 [1]: > 20 µM (inactive)

Structure (SMILES): Cc1sc(NC(=O)c2ccco2)c(C(c2ccccc2)N2CCC(C)CC2)c1C (stereo not given)
- EC50 [2]: > 60 µM (not active)
- EC50 [3]: 1.09 µM (active)
- CC50 (Vero): 14.1 µM (active)

Structure (SMILES): CCc1sc(N(C(=O)Cc2ccccc2)c2cccc(F)c2)nc1-c1ccc(C)cc1
- AC50 (Cytochrome P450 2C9): 6.31 µM (inconclusive)
- AC50 (Cytochrome P450 3A4): 17.8 µM (inconclusive)
- IC50 (Protein skinhead-1): > 100 µM (inactive)
- EC50 (Streptokinase A): 32.6 µM (active)
- EC50 (Streptococcus): > 150 µM (not active)

Structure (SMILES): COc1ccccc1/C=C1\CCCC2=C1Nc1nnnn1C2c1ccccc1OC (stereo not given)
- EC50 [4]: 8.85 µM (active)
- AC50 [5]: 36 µM (active)
- EC50 [6]: 6.96 µM (active)

Structure (SMILES): CCOC(=O)c1nnc(-c2ccccc2)nc1Sc1c(Cl)cccc1Cl
- AC50 [7]: 2.22 µM (active)
- EC50 [4]: 26.9 µM (active)
- EC50 (Protein RecA): > 380 µM (inconclusive)
- EC50 [6]: 27.7 µM (active)

Structure (SMILES): O=C(/C=C/c1ccc(OCc2ccccc2)c(OCc2ccccc2)c1)c1cccnc1
- EC50 [4]: 8.72 µM (active)
- AC50 [5]: 5.19 µM (active)
- AC50 [8]: 19.3 µM (active)
- EC50 [6]: 6.92 µM (active)
- AC50 [9]: 40.5 µM (active)

Structure (SMILES): O=C(/C=C/c1ccncc1)c1ccc2c(c1)OCCO2
- CC50 (Vero): > 25 µM (active)

Structure (SMILES): Cc1ccc(-c2noc(CCC(=O)NCC3CCN(Cc4cccc(C)c4)CC3)n2)cc1
- IC50 [1]: > 20 µM (inactive)

Structure (SMILES): C(=C1/CCCC2=C1Nc1ncnn1C2c1ccccc1)/c1ccccc1 (stereo not given)
- EC50 [2]: 6.87 µM (active)
- AC50 (Cytochrome P450 2C9): 7.94 µM (inconclusive)
- EC50 [4]: 3.45 µM (active)
- EC50 [3]: 3.45 µM (active)
- EC50 [6]: 2.58 µM (active)

Structure (SMILES): O=C(NN=C(c1ccccc1)c1ccccn1)c1ccccc1
- AC50 (INS1): 0.736 µM (active)
- CC50 (Vero): 3.11 µM (active)

Structure (SMILES): O=C(CCN1C(=O)/C(=C\c2ccccc2)SC1=S)N1CCOCC1
- CC50 (Vero): 24.5 µM (active)

Structure (SMILES): CCOC(=O)Cc1csc(N/C=C2/C(=O)N(c3ccc(C)c(C)c3)C(=O)c3ccccc32)n1
- EC50 [10]: > 120 µM (not active)
- EC50 [11]: 10.1 µM (active)
- EC50 [4]: 15.1 µM (active)
- EC50 [12]: > 120 µM (not active)
- EC50 [6]: 10 µM (active)

Structure (SMILES): Cc1ccccc1Nc1nnc(SCC(=O)NC(=O)Nc2ccc3c(c2)OCCO3)s1
- EC50 [4]: 14.6 µM (active)
- EC50 [6]: 14.5 µM (active)

Structure (SMILES): CC1CCN(S(=O)(=O)c2ccc3c(c2)oc(=O)n3CC(=O)N2c3ccccc3CC2C)CC1 (stereo not given)
- EC50 [4]: 39.5 µM (active)
- EC50 [6]: 30.9 µM (active)

Structure (SMILES): C=CCNC(=O)c1c(Cl)nc(C)c([N+](=O)[O-])c1C
- AC50 [13]: 55.3 µM (active)
- AC50 [14]: 42.7 µM (active)

Structure (SMILES): COc1ccc(C=NN=C2c3ccccc3-c3ccccc32)cc1O
- CC50 (Vero): > 25 µM (active)

Structure (SMILES): Cc1nc(N)c2c(Cc3cccc4ccccc34)nn(C(C)(C)C)c2n1
- IC50 [1]: > 20 µM (inactive)

Structure (SMILES): C[C@H]1CN([C@@H](C)CO)S(=O)(=O)c2ccc(Br)cc2O[C@@H]1CN(C)Cc1cccc(F)c1
- CC50 (Vero): > 25 µM (active)

Structure (SMILES): C/C(=N\OCc1ccc(C#N)cc1)c1cc2ccccc2o1
- EC50 [15]: > 160 µM (inconclusive)
- IC50 (Protein skinhead-1): 64 µM (inactive)
- EC50 [16]: > 38 µM (not active)

Structure (SMILES): Cc1ccccc1OCc1nc2ccccc2c(=O)n1/N=C/c1c[nH]nc1-c1ccc(Br)cc1
- EC50 [4]: 7.05 µM (active)
- EC50 [6]: 7.51 µM (active)
